The text below walks through data of patent US20140134658A1, “PSA ENZYMATIC ACTIVITY: A NEW BIOMARKER FOR ASSESSING PROSTATE CANCER AGGRESSIVENESS” (NORTHWESTERN UNIVERSITY, AN ILLINOIS NOT FOR PROFIT …, priority 2010, published 2014).

The target in assay [1] is T1, PSA (Homo sapiens, UniProt P07288).
T1 construct: purchased Scripps Laboratories
Nature of the assay: Optical (fluorogenic) assay of peptide substrate cleavage by PSA. The following applies: fluorogenic AMC-labelled substrate, 0.4 mM in buffer A. Type of assay: biochemical. Here is the method:
Serial dilution of PSA (reagent #5)+substrate
The desired clinical urine samples were thawed at room temperature, gently vortexed, and briefly centrifuged (<20 seconds) to accumulate sample at the bottom of the tube. Each 50 μL sample was transferred via pipette to the 96-well microplate. The PSA standards (20 μL) were prepared and loaded in the same way. A multichannel pipette was used to transfer the substrate (150 μL) one column at a time and the start time recorded. Once the entire plate was loaded, it was inserted into the microplate reader and analyzed every 10 min. for 2-12 hrs.
Serial dilution of AMC (reagent #6) to determine linear fluorescence range: Reagent #6 (35.9 μL) was diluted to 2.0 mL buffer A to give a concentration of 0.4 mM. A 1:2 dilution was performed to give a final concentration range of 0.4 mM-0.024 uM. This was loaded into a 96-well microplate in duplicate and scanned one time. Serial dilution of PSA (reagent #5)+substrate: 20 μL of each standard PSA standard solution (see general procedure for protein dilution above) was loaded in duplicate into a 96-well microplate followed by 150 μL of peptide substrate in buffer A (see general procedure above) and scanned for at least 3 hrs. Serial dilution of α-Chymotrypsin (reagent #8)+substrate: Same as experiment 2 but with reagent #8. […]

For assay [2], the system named is esterases. The assay can be described thus: Sacrificial ester control for esterases in a urine sample with peptide substrate. Type of assay: biochemical. The following applies: urine sample + peptide substrate 0.4 mM, with and without ester 40 mM; single experiment. Here is the method:
This was tested by running a urine sample (+peptide substrate; 0.4 mM) with and without a “sacrificial ester” (alanine methyl ester; 40 mM). The idea is that if there are esterases in the sample, adding a relatively high concentration of ester will prevent them from cleaving the peptide substrate and we should therefore see a higher turnover of substrate.

T1 sequence (P07288 25-261): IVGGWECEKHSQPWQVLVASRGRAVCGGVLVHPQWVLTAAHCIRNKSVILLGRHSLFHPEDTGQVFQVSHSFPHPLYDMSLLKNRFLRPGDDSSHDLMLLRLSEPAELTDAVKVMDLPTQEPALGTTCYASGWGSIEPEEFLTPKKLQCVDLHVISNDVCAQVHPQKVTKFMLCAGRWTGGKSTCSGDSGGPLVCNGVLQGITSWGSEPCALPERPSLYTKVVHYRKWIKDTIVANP

Regarding Mor-HSSK-Hiv-Q-AMC, the “cleavage of substrate by PSA” value in assay [1] was “show cleavage by PSA”.
Regarding Mor-HSSK-Hic-Q-AMC, the “cleavage of substrate by PSA” value in assay [1] was “show cleavage by PSA”.
Regarding `COC(=O)[C@H](C)N` [alanine methyl ester], in assay [2], the “effect of sacrificial ester on turnover of peptide substrate” value is “no difference between the sample run with ester and that run without ester”.
